Patent US4777167A, “Pharmaceutically useful substituted thiacycloalkeno [3,2-b]pyridines, compositions and method of use” (Ortho Pharmaceutical Corporation, priority 1987, dated 1988)
Values joined by “and” are separate entries in the source; they are usually repeats but may differ in a detail not shown here. Equal values may be shown once. Read-outs that look alike come from different tables or passages of the source. Values belong to the molecule of their own block, whether it stands above or below them.

Legend:
calcium channels = target: T1, calcium channels (Oryctolagus cuniculus, UniProt P15381); experiment: Inhibition of nitrendipine binding (3H-nitrendipine displacement, rabbit heart membranes); design: species or system rabbit (New Zealand white); settings: 90 min, 4° C.
T1 construct: from tissue; host or cells: heart of female New Zealand white rabbits, membrane fraction (42,000×g pellet)
T1 sequence (P15381 whole entry, other chains not shown): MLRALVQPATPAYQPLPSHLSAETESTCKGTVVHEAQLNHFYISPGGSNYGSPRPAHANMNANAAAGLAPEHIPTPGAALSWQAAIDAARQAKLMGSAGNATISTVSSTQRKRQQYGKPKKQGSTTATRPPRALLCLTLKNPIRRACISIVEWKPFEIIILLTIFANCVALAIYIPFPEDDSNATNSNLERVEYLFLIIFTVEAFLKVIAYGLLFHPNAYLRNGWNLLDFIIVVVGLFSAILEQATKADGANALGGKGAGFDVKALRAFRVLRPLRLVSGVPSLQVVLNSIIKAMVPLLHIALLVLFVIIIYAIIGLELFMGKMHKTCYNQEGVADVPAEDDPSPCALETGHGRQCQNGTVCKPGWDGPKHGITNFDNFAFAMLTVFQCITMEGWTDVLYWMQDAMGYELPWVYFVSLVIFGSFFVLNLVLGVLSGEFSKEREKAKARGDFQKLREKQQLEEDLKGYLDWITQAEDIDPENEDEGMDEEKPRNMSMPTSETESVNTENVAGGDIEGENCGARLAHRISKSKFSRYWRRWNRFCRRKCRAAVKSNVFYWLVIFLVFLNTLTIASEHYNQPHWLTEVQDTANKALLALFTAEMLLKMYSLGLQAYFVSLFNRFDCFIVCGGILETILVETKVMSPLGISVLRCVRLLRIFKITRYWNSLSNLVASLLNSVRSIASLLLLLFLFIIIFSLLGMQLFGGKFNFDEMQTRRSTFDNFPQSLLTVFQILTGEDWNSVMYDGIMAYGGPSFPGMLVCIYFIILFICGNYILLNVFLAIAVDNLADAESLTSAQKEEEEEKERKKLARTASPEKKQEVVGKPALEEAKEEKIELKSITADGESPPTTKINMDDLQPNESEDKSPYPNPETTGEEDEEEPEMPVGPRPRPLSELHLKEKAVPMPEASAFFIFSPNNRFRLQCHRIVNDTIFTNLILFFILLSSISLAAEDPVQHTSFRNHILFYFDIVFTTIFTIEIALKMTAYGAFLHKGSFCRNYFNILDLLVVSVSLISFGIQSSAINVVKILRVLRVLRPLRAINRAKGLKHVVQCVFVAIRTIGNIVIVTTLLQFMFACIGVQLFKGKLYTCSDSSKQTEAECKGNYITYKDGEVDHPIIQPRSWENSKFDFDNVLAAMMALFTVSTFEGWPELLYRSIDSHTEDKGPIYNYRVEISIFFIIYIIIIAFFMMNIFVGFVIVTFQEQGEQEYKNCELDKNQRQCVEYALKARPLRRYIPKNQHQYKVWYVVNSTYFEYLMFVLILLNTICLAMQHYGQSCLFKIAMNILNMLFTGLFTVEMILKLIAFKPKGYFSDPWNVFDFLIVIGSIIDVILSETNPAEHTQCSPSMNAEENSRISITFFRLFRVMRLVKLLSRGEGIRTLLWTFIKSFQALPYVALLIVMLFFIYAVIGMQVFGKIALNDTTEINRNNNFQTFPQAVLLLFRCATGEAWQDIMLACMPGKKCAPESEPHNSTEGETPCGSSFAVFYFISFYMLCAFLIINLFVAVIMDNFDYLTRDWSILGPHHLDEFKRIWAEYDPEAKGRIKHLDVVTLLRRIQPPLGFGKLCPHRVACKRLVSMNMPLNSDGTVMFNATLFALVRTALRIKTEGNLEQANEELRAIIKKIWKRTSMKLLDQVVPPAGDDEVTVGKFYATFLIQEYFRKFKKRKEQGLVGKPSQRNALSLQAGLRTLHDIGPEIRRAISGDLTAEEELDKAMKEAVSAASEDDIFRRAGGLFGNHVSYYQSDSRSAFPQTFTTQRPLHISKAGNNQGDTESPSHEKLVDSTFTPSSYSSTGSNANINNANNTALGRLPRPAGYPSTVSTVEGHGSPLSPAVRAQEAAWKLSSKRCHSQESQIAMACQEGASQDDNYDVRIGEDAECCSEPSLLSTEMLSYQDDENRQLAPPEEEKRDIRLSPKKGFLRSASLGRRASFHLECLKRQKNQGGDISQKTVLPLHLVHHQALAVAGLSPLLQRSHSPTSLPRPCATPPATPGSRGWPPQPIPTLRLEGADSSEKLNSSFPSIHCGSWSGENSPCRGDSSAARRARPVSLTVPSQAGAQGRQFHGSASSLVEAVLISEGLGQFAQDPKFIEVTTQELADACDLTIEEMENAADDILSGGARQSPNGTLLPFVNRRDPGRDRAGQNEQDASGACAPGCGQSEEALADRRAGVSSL
T1 sequence (P13806 27-960 partner limits assumed, other chains not shown): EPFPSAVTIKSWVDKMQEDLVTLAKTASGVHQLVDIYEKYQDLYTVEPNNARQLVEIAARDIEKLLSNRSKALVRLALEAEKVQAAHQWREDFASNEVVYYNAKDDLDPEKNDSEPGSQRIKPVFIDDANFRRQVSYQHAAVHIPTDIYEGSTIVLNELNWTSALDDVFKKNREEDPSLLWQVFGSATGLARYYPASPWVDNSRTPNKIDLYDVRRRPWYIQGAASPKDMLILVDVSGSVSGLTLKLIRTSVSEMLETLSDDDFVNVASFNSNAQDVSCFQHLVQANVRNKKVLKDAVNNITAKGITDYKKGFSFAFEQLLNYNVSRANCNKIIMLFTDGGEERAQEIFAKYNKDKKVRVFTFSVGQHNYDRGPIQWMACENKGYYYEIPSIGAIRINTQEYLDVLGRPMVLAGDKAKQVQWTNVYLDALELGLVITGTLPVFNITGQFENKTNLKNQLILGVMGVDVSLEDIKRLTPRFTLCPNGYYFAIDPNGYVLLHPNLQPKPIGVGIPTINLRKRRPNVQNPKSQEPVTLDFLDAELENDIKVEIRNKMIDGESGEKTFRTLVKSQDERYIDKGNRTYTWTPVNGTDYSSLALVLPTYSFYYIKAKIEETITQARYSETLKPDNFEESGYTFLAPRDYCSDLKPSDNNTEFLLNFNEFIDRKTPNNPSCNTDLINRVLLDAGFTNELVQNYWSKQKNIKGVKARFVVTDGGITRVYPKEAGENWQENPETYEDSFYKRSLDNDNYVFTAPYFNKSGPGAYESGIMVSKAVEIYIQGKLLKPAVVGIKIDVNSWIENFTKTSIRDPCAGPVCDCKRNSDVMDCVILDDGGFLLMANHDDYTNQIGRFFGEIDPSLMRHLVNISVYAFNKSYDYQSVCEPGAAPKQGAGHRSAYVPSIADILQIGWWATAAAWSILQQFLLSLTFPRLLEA
T1 sequence (P13806 961-1106 partner limits assumed, other chains not shown): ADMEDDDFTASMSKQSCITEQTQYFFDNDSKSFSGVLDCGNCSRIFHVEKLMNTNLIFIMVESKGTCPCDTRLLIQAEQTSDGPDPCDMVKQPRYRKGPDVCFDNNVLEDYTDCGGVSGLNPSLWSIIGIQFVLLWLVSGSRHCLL
Method: (1) Inhibition of nitrendipine binding to calcium channels.
The assay for inhibition of nitrendipine binding follows the following procedure:
Female, New Zealand white rabbits (1-2 kg) are sacrificed by cervical dislocation, and the heart is immediately removed, cleaned, and chopped into small pieces. The tissue is homogenized in 5× volume of 0.05M Hepes buffer, pH 7.4. The homogenate is centrifuged at 4000×g for 10 minutes; the supernatant is recentrifuged at 42,000×g for 90 minutes. The resulting membrane pellet is resuspended (0.7 ml/g weight) in 0.05M Hepes, pH 7.4 and stored at -70° C. until used. Each tube of the binding assay contains ^3 H- nitrendipine (0.05-0.50 nM), buffer, membranes (0.10 ml), and test compound in a total volume of 1.0 ml. After 90 minutes at 4° C., the bound nitrendipine is separated from the unbound by filtration on Whatman GF/C fibers. After rinsing, the filters are dried and counted in a liquid scintillation counter.
Non-specific binding of ^3 H-nitrendipine (that amount bound in the presence of excess unlabelled nitrendipine) is subtracted from the total bound to obtain specifically bound radiolabeled nitrendipine. The amount of specifically bound nitrendipine in the presence of a test compound is compared to that amount bound in the absence of a compound. A percent displacement (or inhibition) can then be obtained.

trachealis muscle = experiment: Inhibition of calcium dependent smooth muscle contraction (KCl-challenged trachea); type: cell-based, dog; settings: Canis lupus familiaris; for inhibition at 0.1 µM: concentration 0.1 μM; for inhibition at 10 µM: concentration 10.0 μM; for inhibition at 2 µM: concentration 2.0 μM; for inhibition at 0.5 µM: concentration 0.5 μM; for inhibition at 0.2 µM: concentration 0.2 μM
Method: The test for inhibition of calcium dependent smooth muscle contraction is determined according to the following procedure:
Trachea from dogs sacrificed by excess KCl injection are stored overnight at 4° C. in oxygenated Krebs-Henseleit buffer. Tracheal rings, one cartilage segment wide (5-10 mm), are cut starting from the bronchial end. After cutting the cartilage, the trachealis muscle tissue is suspended in oxygenated Krebs-Henseleit buffer at 37° C. in a 25 ml tissue bath. After a 60 minutes equilibration period, the tissues are challenged with 10 μM carbachol. After 5 minutes the tissues are rinsed and allowed to rest 50 minutes. The tissues are then challenged with 50 mM KCl and, after 30 minutes, the contractions are quantitated. The tissues are then rinsed and reequilibrated for 50 minutes. Test compounds are then added for 10 minutes, and the tissue is rechallenged with 50 mMKcl. After 30 minutes, the contraction is recorded and used to determine the % inhibition of control.
The percent inhibition of smooth muscle contraction is calculated from response data before and after drug treatment. [formula] A rating is assigned to the compound depending upon the percent inhibition obtained.

Aorta Muscle = experiment: Inhibition of aorta muscle contraction; type: cell-based; settings: Table II; concentration 0.1 μM
[1] = Table II, read-out: Inhibition Trachea Muscle Contraction % Inhibition
[2] = Table I, read-out: Inhibition of Ca2+ dependent smooth muscle contraction % Inhibition

Structure (SMILES): CC1=C(C(=O)OCCN(C)Cc2ccccc2)C(c2cccc(Cl)c2Cl)C2=C(CCCCS2(=O)=O)N1 (stereo not shown) [4 2,3-Cl2C6 H3, N-Benzyl-N-methylaminoethyl 9-(2,3-dichlorophenyl)-2,4,5,6,9-hexahydro-7-methyl-1,1-dioxothiacyclohepteno[3,2-b]pyridine-8-carboxylate]
IC50 (calcium channels; Table II): 100 nM | inhibition at 0.1 µM (trachealis muscle; [1]): 62% | inhibition at 0.1 µM (Aorta Muscle): 83%

Structure (SMILES): COC(=O)C1=C(C)NC2=C(C1c1c(F)c(F)c(F)c(F)c1F)S(=O)(=O)CC2 (stereo not shown) [2 CH3 C6 F5]
IC50 (calcium channels; Table I): 150 nM | inhibition at 2 µM (trachealis muscle; [2]): 47%

Structure (SMILES): CCOC(=O)C1=C(C)NC2=C(C1c1c(F)c(F)c(F)c(F)c1F)S(=O)(=O)CCCC2 (stereo not shown) [4 CH2 CH3 C6 F5, Ethyl 9-(2,3,4,5,6-pentafluorophenyl)-2,3,4,5,6,9-hexahydro-7-methyl-1,1-dioxothiacyclohepteno[3,2-b]pyridine-8-carboxylate]
IC50 (calcium channels; Table I): 28 nM | inhibition at 0.5 µM (trachealis muscle; [2]): 95%

Structure (SMILES): CC1=C(C(=O)OCCN(C)Cc2ccccc2)C(c2c(F)c(F)c(F)c(F)c2F)C2=C(CCCCS2(=O)=O)N1 (stereo not shown) [4 CH2 CH2 NCH3 CH2 C6 H5 C6 F5, N-Benzyl-N-methylaminoethyl 9-(2,3,4,5,6-pentafluorophenyl)-2,3,4,5,6,9-hexahydro-7-methyl-1,1-dioxothiacyclohepteno[3,2-b]pyridine-8-carboxylate]
IC50 (calcium channels; Table I): 35 nM | inhibition at 0.2 µM (trachealis muscle; [2]): 74%

Structure (SMILES): CCOC(=O)C1=C(C)NC2=C(C1c1c(F)c(F)c(F)c(F)c1F)S(=O)(=O)CC2 (stereo not shown) [2 CH2 CH3 C6 F5]
IC50 (calcium channels; Table I): 560 nM | inhibition at 2 µM (trachealis muscle; [2]): 48%

Structure (SMILES): CCOC(=O)C1=C(C)NC2=C(C1c1cccnc1SC)S(=O)(=O)CCCCC2 (stereo not shown) [drawing 8 CH2 CH3]
inhibition at 0.3 µM (trachealis muscle; Table II, concentration 0.3 μM): 79% | inhibition at 0.1 µM (Aorta Muscle): 42%

Structure (SMILES): COC(=O)C1=C(C)NC2=C(C1c1c(F)c(F)c(F)c(F)c1F)S(=O)(=O)CCC2 (stereo not shown) [3 CH3 C6 F5]
IC50 (calcium channels; Table I): 400 nM | inhibition at 0.5 µM (trachealis muscle; [2]): 46%

Structure (SMILES): CC1=C(C(=O)OCCN(C)Cc2ccccc2)C(c2ccccc2OC(F)F)C2=C(CCCCS2(=O)=O)N1 (stereo not shown) [4 2-OCHF2C6 H4, N-Benzyl-N-methylaminoethyl 9-(2-cifluoromethoxyphenyl)-2,4,5,6,9-hexahydro-7-methyl-1,1-dioxothiacyclohepteno[3,2-b]pyridine-8-carboxylate]
IC50 (calcium channels; Table II): 72 nM | inhibition at 0.1 µM (trachealis muscle; [1]): 54%

Structure (SMILES): CC1=C(C(=O)OCCN(C)Cc2ccccc2)C(c2ccccc2[N+](=O)[O-])C2=C(CCCCCS2(=O)=O)N1 (stereo not shown) [5 2-NO2C 6 H4 CH2 CH2 NCH3 CH2 C6 H5]
inhibition at 0.1 µM (trachealis muscle; [1]): 69% | inhibition at 0.1 µM (Aorta Muscle): 73%

Structure (SMILES): CC1=C(C(=O)OCc2ccccc2)C(c2ccccc2[N+](=O)[O-])C2=C(CCCS2(=O)=O)N1 (stereo not shown) [3 CH2 C6 H5 2-NO2C6 H4]
IC50 (calcium channels; Table I): 3400 nM | inhibition at 10 µM (trachealis muscle; [2]): 69%

Structure (SMILES): CC1=C(C(=O)OC2CCCSC2)C(c2cccc(Cl)c2Cl)C2=C(CCCCS2(=O)=O)N1 (stereo not shown) [4 2,3-Cl2C6 H3 drawing 14]
inhibition at 2 µM (trachealis muscle; [1]): 54%

Structure (SMILES): CC1=C(C(=O)OC2CCCSC2)C(c2c(F)c(F)c(F)c(F)c2F)C2=C(CCCCS2(=O)=O)N1 (stereo not shown) [4 C6 F5 drawing 13]
inhibition at 2 µM (trachealis muscle; [1]): 53%

Structure (SMILES): COC(=O)C1=C(C)NC2(O)CCS(=O)(=O)C2C1c1ccccc1[N+](=O)[O-] (stereo not shown) [Methyl 2,3,3a,4,7,7a-hexahydro-3a-hydroxy-5-methyl-7-(2-nitrophenyl)-1,1-dioxo-thieno[3,2-b]pyridine-6-carboxylate]
inhibition at 2 µM (trachealis muscle; [2]): 26%

Continued, in another order:

IC50 (calcium channels; Table I): 5.5 nM
Structure (SMILES): CCOC(=O)C1=C(C)NC2=C(C1c1cccc([N+](=O)[O-])c1)S(=O)(=O)CCCCC2 (stereo not shown) [5 CH2 CH3 3-NO2C6 H4]
inhibition at 0.1 µM (trachealis muscle; [2]): 71%

IC50 (calcium channels; Table I): 1500 nM
Structure (SMILES): CCOC(=O)C1=C(C)NC2=C(C1c1ccccc1[N+](=O)[O-])S(=O)(=O)CCC2 (stereo not shown) [3 CH2 CH3 2-NO2C6 H4]
inhibition at 10 µM (trachealis muscle; [2]): 75%

IC50 (calcium channels; Table I): 170 nM
Structure (SMILES): CCOC(=O)C1=C(C)NC2=C(C1c1cccc([N+](=O)[O-])c1)S(=O)(=O)CCC2 (stereo not shown) [3 CH2 CH3 3-NO2C6 H4, Ethyl 3,4,5,8-tetrahydro-6-methyl-8-(3-nitrophenyl)-1,1-dioxo-2H-thio-pyrano[3,2-b]pyridine-7-carboxylate]
inhibition at 10 µM (trachealis muscle; [2]): 69%

IC50 (calcium channels; Table I): 700 nM
Structure (SMILES): COC(=O)C1=C(C)NC2=C(C1c1cccc([N+](=O)[O-])c1)S(=O)(=O)CC2 (stereo not shown) [2 CH3 3-NO2C6 H4]
inhibition at 10 µM (trachealis muscle; [2]): 76%

IC50 (calcium channels; Table I): 890 nM
Structure (SMILES): COC(=O)C1=C(C)NC2=C(C1c1ccccc1[N+](=O)[O-])S(=O)(=O)CCC2 (stereo not shown) [3 CH3 2-NO2C6 H4]
inhibition at 10 µM (trachealis muscle; [2]): 84%

IC50 (calcium channels; Table I): 1000 nM
Structure (SMILES): CC1=C(C(=O)OCCN(C)Cc2ccccc2)C(c2cccc([N+](=O)[O-])c2)C2=C(CCS2(=O)=O)N1 (stereo not shown) [2 CH2 CH2 NCH3 CH2 C6 H5 3-NO2C6 H4, N-Benzyl-N-methylaminoethyl 2,3,4,7-tetrahydro-5-methyl-7-(3-nitrophenyl)-1,1-dioxothieno[3,2-b]pyridine-6-carboxylate]
inhibition at 5 µM (trachealis muscle; Table I, concentration 5.0 μM, read-out: Inhibition of Ca2+ dependent smooth muscle contraction % Inhibition): 65%

IC50 (calcium channels; Table I): 1850 nM
Structure (SMILES): CC1=C(C(=O)OCCN(C)Cc2ccccc2)C(c2cccc([N+](=O)[O-])c2)C2=C(CCCS2(=O)=O)N1 (stereo not shown) [3 CH2 CH2 NCH3 CH2 C6 H5 3-NO2C6 H4, N-Benzyl-N-methyl-2-aminoethyl 2,3,4,8-tetrahydro-6-methyl-8-(3-nitrophenyl)-1,1-dioxo-5H-thiopyrano[3,2-b]pyridine-7-carboxylate Hemioxalate]
inhibition at 2 µM (trachealis muscle; [2]): 46%

IC50 (calcium channels; Table I): 270 nM
Structure (SMILES): CCOC(=O)C1=C(C)NC2=CCCCCS(=O)(=O)C2C1c1cccc([N+](=O)[O-])c1 (stereo not shown) [Ethyl 3,4,5,7,10,10a-hexahydro-8-methyl-10-(3-nitrophenyl)-1,1-dioxo-2H-thiacycloocteno[3,2-b]pyridine-9-carboxylate]
inhibition at 2 µM (trachealis muscle; [2]): 53%

IC50 (calcium channels; Table I): 2000 nM
Structure (SMILES): COC(=O)C1=C(C)NC2=C(C1c1cccc(C#N)c1)S(=O)(=O)CC2 (stereo not shown) [2 CH3 3-CNC6 H4]

IC50 (calcium channels; Table I): 130 nM
Structure (SMILES): CC1=C(C(=O)OCCN(C)Cc2ccccc2)C(c2cccc([N+](=O)[O-])c2)C2=C(CCCCS2(=O)=O)N1 (stereo not shown) [4 CH2 CH2 NCH3 CH2 C6 H5 3-NO2C6 H4, N-Benzyl-N-methylaminoethyl 2,4,5,6,9-hexahydro-7-methyl-9-(3-nitrophenyl)-1,1-dioxothiacyclohepteno[3,2-b]pyridine-8-carboxylate]
inhibition at 0.2 µM (trachealis muscle; [2]): 68%

IC50 (calcium channels; Table I): 930 nM
Structure (SMILES): COC(=O)C1=C(C)NC2=C(C1c1cccc(Cl)c1)S(=O)(=O)CC2 (stereo not shown) [2 CH3 3-ClC6 H4]

IC50 (calcium channels; Table I): 160 nM
Structure (SMILES): COC(=O)C1=C(C)NC2=C(C1c1cccc([N+](=O)[O-])c1)S(=O)(=O)CCC2 (stereo not shown) [3 CH3 3-NO2C6 H4, Methyl 3,4,5,8,-tetrahydro-6-methyl-8-(3-nitrophenyl)-1,1-dioxo-2H-thiopyrano-[3,2-b]pyridine-7-carboxylate]
inhibition at 10 µM (trachealis muscle; [2]): 57%

IC50 (calcium channels; Table I): 27 nM and 39 nM
Structure (SMILES): COC(=O)C1=C(C)NC2=C(C1c1cccc([N+](=O)[O-])c1)S(=O)(=O)CCCC2 (stereo not shown) [4 CH3 3-NO2C6 H4]
inhibition at 2 µM (trachealis muscle; [2]): 94%

IC50 (calcium channels; Table I): 1350 nM
Structure (SMILES): COC(=O)C1=C(C)NC2=C(C1c1ccccc1[N+](=O)[O-])S(=O)(=O)CC2 (stereo not shown) [2 CH3 2-NO2C6 H4, Methyl 2,3,4,7,-tetrahydro-5-methyl-7-(2-nitrophenyl)-1,1-dioxothieno[3,2-b]pyridine-6-carboxylate]
inhibition at 2 µM (trachealis muscle; [2]): 63%

IC50 (calcium channels; Table I): 44 nM
Structure (SMILES): CCOC(=O)C1=C(C)NC2=C(C1c1cccc([N+](=O)[O-])c1)S(=O)(=O)CCCC2 (stereo not shown) [4 CH 2 CH3 3-NO2C6 H4, Ethyl 2,3,4,5,6,9-hexahydro-7-methyl-9-(3-nitrophenyl)-1,1-dioxothiacyclohepteno[3,2-b]pyridine-8-carboxylate]
inhibition at 2 µM (trachealis muscle; [2]): 96%
